# Data from patent publication US9988400B2 (Genentech, Inc., priority 2013, dated 2018).
# Target: T1, HEK cells stably transfected with tetracycline inducible hNR1 and hNR2A (Homo sapiens, UniProt Q05586+Q12879)
# T1 construct: expressed in transfected cells; host or cells: HEK cells, stably transfected, tetracycline/doxycycline inducible
# Assay: Assay 1: Cell-Based Assay, cytosolic calcium response to positive allosteric modulators (with 30 μM glycine and 300 nM L-glutamate, EC30)
# Details: Table 3; cytosolic calcium response, with 30 μM glycine and 300 nM L-glutamate (EC30); — = no plateau was reached
# Procedure, shortened: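 Cells induced 24 h with 7.5 μg mL^−1 doxycycline plus 500 μM (+)-ketamine, loaded 60 min at 37 °C with calcium dye in Mg-free HBSS (1.8 mM Ca, probenecid, 10 μM (+)-ketamine, pH 7.15). Peak RFU over 5 min after compound addition, scaled to 100 μM L-glutamate (100%) and 0 μM (0%); four-parameter Hill fit for EC50, max % if no plateau.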
# T1 sequence (Q12879 23-1464, other chains not shown): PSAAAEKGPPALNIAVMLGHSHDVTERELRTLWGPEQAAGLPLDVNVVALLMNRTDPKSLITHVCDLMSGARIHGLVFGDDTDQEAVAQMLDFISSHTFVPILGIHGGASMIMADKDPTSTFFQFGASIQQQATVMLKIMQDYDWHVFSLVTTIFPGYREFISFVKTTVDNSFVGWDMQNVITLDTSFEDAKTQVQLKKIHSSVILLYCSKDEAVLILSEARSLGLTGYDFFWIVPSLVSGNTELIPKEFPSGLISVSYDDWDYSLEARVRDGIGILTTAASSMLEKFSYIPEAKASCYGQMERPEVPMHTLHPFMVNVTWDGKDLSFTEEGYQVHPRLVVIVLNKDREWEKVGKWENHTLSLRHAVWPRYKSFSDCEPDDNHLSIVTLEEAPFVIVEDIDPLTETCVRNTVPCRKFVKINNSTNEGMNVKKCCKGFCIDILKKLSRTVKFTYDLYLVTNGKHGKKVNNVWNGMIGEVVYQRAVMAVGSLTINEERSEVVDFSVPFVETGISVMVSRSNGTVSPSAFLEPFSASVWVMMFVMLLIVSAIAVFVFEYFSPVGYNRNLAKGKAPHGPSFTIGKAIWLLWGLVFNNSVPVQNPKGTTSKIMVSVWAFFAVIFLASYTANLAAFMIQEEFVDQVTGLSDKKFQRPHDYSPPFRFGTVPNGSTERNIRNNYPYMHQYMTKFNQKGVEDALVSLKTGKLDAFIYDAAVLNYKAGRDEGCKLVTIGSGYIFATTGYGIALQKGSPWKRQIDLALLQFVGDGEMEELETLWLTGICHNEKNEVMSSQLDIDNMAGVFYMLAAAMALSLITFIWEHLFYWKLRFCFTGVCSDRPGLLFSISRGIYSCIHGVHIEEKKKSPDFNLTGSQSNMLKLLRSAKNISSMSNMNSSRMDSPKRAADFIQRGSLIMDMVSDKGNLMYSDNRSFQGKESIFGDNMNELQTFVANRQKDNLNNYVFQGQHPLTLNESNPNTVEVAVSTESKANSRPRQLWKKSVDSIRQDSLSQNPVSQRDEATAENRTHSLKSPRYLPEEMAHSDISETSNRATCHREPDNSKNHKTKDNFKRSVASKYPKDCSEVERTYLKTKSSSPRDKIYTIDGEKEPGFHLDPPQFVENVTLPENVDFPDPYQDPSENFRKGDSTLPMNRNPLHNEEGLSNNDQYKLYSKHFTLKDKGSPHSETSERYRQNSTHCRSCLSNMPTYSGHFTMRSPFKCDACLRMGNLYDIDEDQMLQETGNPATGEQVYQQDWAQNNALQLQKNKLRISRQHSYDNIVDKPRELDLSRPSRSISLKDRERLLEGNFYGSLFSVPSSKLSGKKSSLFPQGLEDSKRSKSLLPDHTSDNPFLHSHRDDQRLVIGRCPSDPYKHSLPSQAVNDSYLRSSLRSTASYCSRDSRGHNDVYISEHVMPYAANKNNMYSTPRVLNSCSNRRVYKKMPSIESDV
row,EC50 [nM],SMILES
1,2370,"Cc1sc2nc(Cc3cccc(C#N)c3F)cc(=O)n2c1N1CCC1 [compound 113, 3-[[3-(azetidin-1-yl)-2-methyl-5-oxo-thiazolo[3,2-a]pyrimidin-7-yl]methyl]-2-fluoro-benzonitrile]"
2,1340,"Cc1sc2nc(Cn3nc(C(F)(F)F)cc3Cl)cc(=O)n2c1C#N [compound 114, 7-[[5-chloro-3-(trifluoromethyl)pyrazol-1-yl]methyl]-2-methyl-5-oxo-thiazolo[3,2-a]pyrimidine-3-carbonitrile]"
3,2750,"Cc1sc2nc(Cn3nc(Cl)cc3C(F)(F)F)cc(=O)n2c1C#N [compound 115, 7-[[3-chloro-5-(trifluoromethyl)pyrazol-1-yl]methyl]-2-methyl-5-oxo-thiazolo[3,2-a]pyrimidine-3-carbonitrile]"
4,351,"Cc1sc2nc(Cn3nc(C(F)(F)F)cc3Cl)cc(=O)n2c1C1CC1 [compound 116, 7-[[5-chloro-3-(trifluoromethyl)pyrazol-1-yl]methyl]-3-cyclopropyl-2-methyl-thiazolo[3,2-a]pyrimidin-5-one]"
5,1030,"Cc1sc2nc(Cn3nc(Cl)cc3C(F)(F)F)cc(=O)n2c1C1CC1 [compound 117, 7-[[3-chloro-5-(trifluoromethyl)pyrazol-1-yl]methyl]-3-cyclopropyl-2-methyl-thiazolo[3,2-a]pyrimidin-5-one]"
6,169,"Cc1sc2nc(Cn3nc(C(F)(F)F)cc3Cl)cc(=O)n2c1C1CC1C (stereo not shown) [compound 118, 7-[[5-chloro-3-(trifluoromethyl)pyrazol-1-yl]methyl]-2-methyl-3-(2-methylcyclopropyl)thiazolo[3,2-a]pyrimidin-5-one]"
7,325,"CC(=O)c1c(C)sc2nc(Cn3nc(C(F)(F)F)cc3Cl)cc(=O)n12 [compound 119, 3-acetyl-7-[[5-chloro-3-(trifluoromethyl)pyrazol-1-yl]methyl]-2-methyl-thiazolo[3,2-a]pyrimidin-5-one]"
8,995,"CC(=O)c1c(C)sc2nc(Cn3nc(Cl)cc3C(F)(F)F)cc(=O)n12 [compound 120, 3-acetyl-7-[[3-chloro-5-(trifluoromethyl)pyrazol-1-yl]methyl]-2-methyl-thiazolo[3,2-a]pyrimidin-5-one]"
9,17600,"CC1CC1c1c(Cl)sc2nc(Cc3cccc(C(F)(F)F)c3F)cc(=O)n12 (stereo not shown) [compound 121, 2-chloro-7-[[2-fluoro-3-(trifluoromethyl)phenyl]methyl]-3-(2-methylcyclopropyl)thiazolo[3,2-a]pyrimidin-5-one]"
10,9140,"Cc1sc2nc(Cn3nc(Cl)cc3C(F)(F)F)cc(=O)n2c1-c1cncnc1 [compound 122, 7-[[3-chloro-5-(trifluoromethyl)pyrazol-1-yl]methyl]-2-methyl-3-pyrimidin-5-yl-thiazolo[3,2-a]pyrimidin-5-one]"
11,2590,"CCNC(=O)c1c(C)sc2nc(Cn3nc(C4CC4)cc3C(F)(F)F)cc(=O)n12 [compound 123, 7-[[3-cyclopropyl-5-(trifluoromethyl)pyrazol-1-yl]methyl]-N-ethyl-2-methyl-5-oxo-thiazolo[3,2-a]pyrimidine-3-carboxamide]"
12,5900,"CCNC(=O)c1c(C)sc2nc(CN(C)c3ccc(Cl)cn3)cc(=O)n12 [compound 124, 7-[[(5-chloro-2-pyridyl)-methyl-amino]methyl]-N-ethyl-2-methyl-5-oxo-thiazolo[3,2-a]pyrimidine-3-carboxamide]"
13,4870,"CCNC(=O)c1c(OC)sc2nc(Cn3nc(Cl)cc3C(F)(F)F)cc(=O)n12 [compound 127, 7-[[3-chloro-5-(trifluoromethyl)pyrazol-1-yl]methyl]-N-ethyl-2-methoxy-5-oxo-thiazolo[3,2-a]pyrimidine-3-carboxamide]"
14,682,"CCNC(=O)c1c(OC)sc2nc(Cn3nc(C(F)(F)F)cc3Cl)cc(=O)n12 [compound 128, 7-[[5-chloro-3-(trifluoromethyl)pyrazol-1-yl]methyl]-N-ethyl-2-methoxy-5-oxo-thiazolo[3,2-a]pyrimidine-3-carboxamide]"
15,774,"CCNC(=O)c1c(OC)sc2nc(Cn3nc(C(F)(F)F)cc3C3CC3)cc(=O)n12 [compound 129, 7-[[5-cyclopropyl-3-(trifluoromethyl)pyrazol-1-yl]methyl]-N-ethyl-2-methoxy-5-oxo-thiazolo[3,2-a]pyrimidine-3-carboxamide]"
16,6860,"CCNC(=O)c1c(OC)sc2nc(Cn3nc(C4CC4)cc3C(F)(F)F)cc(=O)n12 [compound 130, 7-[[3-cyclopropyl-5-(trifluoromethyl)pyrazol-1-yl]methyl]-N-ethyl-2-methoxy-5-oxo-thiazolo[3,2-a]pyrimidine-3-carboxamide]"
17,681,"Cc1sc2nc(Cc3cccc(C(F)(F)F)c3F)cc(=O)n2c1C1CC1C#N (stereo not shown) [compound 131, 2-[7-[[2-fluoro-3-(trifluoromethyl)phenyl]methyl]-2-methyl-5-oxo-thiazolo[3,2-a]pyrimidin-3-yl]cyclopropanecarbonitrile]"

row,EC50 [nM],SMILES
1,2040,Cc1sc2nc(Cn3nc(C(F)(F)F)cc3Cl)cc(=O)n2c1-c1ccn[nH]1 [compound 132]
2,10100,"Cc1sc2nc(Cn3nc(Cl)cc3C(F)(F)F)cc(=O)n2c1-c1ccn[nH]1 [compound 133, 7-[[3-chloro-5-(trifluoromethyl)pyrazol-1-yl]methyl]-2-methyl-3-(1H-pyrazol-5-yl)thiazolo[3,2-a]pyrimidin-5-one]"
3,501,"Cc1sc2nc(Cn3nc(C(F)(F)F)cc3Cl)cc(=O)n2c1-c1cccnc1 [compound 134, 7-[[5-chloro-3-(trifluoromethyl)pyrazol-1-yl]methyl]-2-methyl-3-(3-pyridyl)thiazolo[3,2-a]pyrimidin-5-one]"
4,397,"C=C(C)c1c(C)sc2nc(Cn3nc(C(F)(F)F)cc3Cl)cc(=O)n12 [compound 135, 7-[[5-chloro-3-(trifluoromethyl)pyrazol-1-yl]methyl]-3-isopropenyl-2-methyl-thiazolo[3,2-a]pyrimidin-5-one]"
5,775,"Cc1sc2nc(Cn3nc(C(F)(F)F)cc3Cl)cc(=O)n2c1-c1cncc(F)c1 [compound 138, 7-[[5-chloro-3-(trifluoromethyl)pyrazol-1-yl]methyl]-3-(5-fluoro-3-pyridyl)-2-methyl-thiazolo[3,2-a]pyrimidin-5-one]"
6,6360,"Cc1sc2nc(Cn3nc(Cl)cc3C(F)(F)F)cc(=O)n2c1-c1cncc(F)c1 [compound 139, 7-[[3-chloro-5-(trifluoromethyl)pyrazol-1-yl]methyl]-3-(5-fluoro-3-pyridyl)-2-methyl-thiazolo[3,2-a]pyrimidin-5-one]"
7,147,"CCC(=O)c1c(C)sc2nc(Cn3nc(C(F)(F)F)cc3Cl)cc(=O)n12 [compound 140, 7-[[5-chloro-3-(trifluoromethyl)pyrazol-1-yl]methyl]-2-methyl-3-propanoyl-thiazolo[3,2-a]pyrimidin-5-one]"
8,328,"CCC(=O)c1c(C)sc2nc(Cn3nc(Cl)cc3C(F)(F)F)cc(=O)n12 [compound 141, 7-[[3-chloro-5-(trifluoromethyl)pyrazol-1-yl]methyl]-2-methyl-3-propanoyl-thiazolo[3,2-a]pyrimidin-5-one]"
9,2090,"Cc1sc2nc(Cn3nc(C(F)(F)F)cc3Cl)cc(=O)n2c1-c1nccs1 [compound 142, 7-[[5-chloro-3-(trifluoromethyl)pyrazol-1-yl]methyl]-2-methyl-3-thiazol-2-yl-thiazolo[3,2-a]pyrimidin-5-one]"
10,12000,"CCNC(=O)c1c(C)sc2nc(CN(C)c3ccc(F)cn3)cc(=O)n12 [compound 143, N-ethyl-7-[[(5-fluoro-2-pyridyl)-methyl-amino]methyl]-2-methyl-5-oxo-thiazolo[3,2-a]pyrimidine-3-carboxamide]"
11,41.1,"N#CC1CC1c1c(C(F)(F)F)sc2nc(Cn3nc(C(F)(F)F)cc3Cl)cc(=O)n12 (stereo not shown) [compound 144, 2-[7-[[5-chloro-3-(trifluoromethyl)pyrazol-1-yl]methyl]-5-oxo-2-(trifluoromethyl)thiazolo[3,2-a]pyrimidin-3-yl]cyclopropanecarbonitrile]"
12,132,"N#CC1CC1c1c(C(F)(F)F)sc2nc(Cn3nc(Cl)cc3C(F)(F)F)cc(=O)n12 (stereo not shown) [compound 145, 2-[7-[[3-chloro-5-(trifluoromethyl)pyrazol-1-yl]methyl]-5-oxo-2-(trifluoromethyl)thiazolo[3,2-a]pyrimidin-3-yl]cyclopropanecarbonitrile]"
13,156,"N#Cc1cccc(Cc2cc(=O)n3c(C4CC4C(F)(F)F)c(C(F)(F)F)sc3n2)c1F (stereo not shown) [compound 146, 2-fluoro-3-[[5-oxo-2-(trifluoromethyl)-3-[2-(trifluoromethyl)cyclopropyl]thiazolo[3,2-a]pyrimidin-7-yl]methyl]benzonitrile]"
14,1980,"CCNC(=O)c1c(C)sc2nc(CN(CC)c3ccc(F)cn3)cc(=O)n12 [compound 147, N-ethyl-7-[[ethyl-(5-fluoro-2-pyridyl)amino]methyl]-2-methyl-5-oxo-thiazolo[3,2-a]pyrimidine-3-carboxamide]"
15,20800,"CCNC(=O)c1c(C)sc2nc(CN(CC)c3ccccn3)cc(=O)n12 [compound 148, N-ethyl-7-[[ethyl(2-pyridyl)amino]methyl]-2-methyl-5-oxo-thiazolo[3,2-a]pyrimidine-3-carboxamide]"
16,729,"Cc1sc2nc(Cn3nc(C(F)(F)F)cc3Cl)cc(=O)n2c1-c1cncc(Cl)c1 [compound 149, 3-(5-chloro-3-pyridyl)-7-[[5-chloro-3-(trifluoromethyl)pyrazol-1-yl]methyl]-2-methyl-thiazolo[3,2-a]pyrimidin-5-one]"
17,17300,"Cc1sc2nc(Cn3nc(Cl)cc3C(F)(F)F)cc(=O)n2c1-c1cncc(Cl)c1 [compound 150, 3-(5-chloro-3-pyridyl)-7-[[3-chloro-5-(trifluoromethyl)pyrazol-1-yl]methyl]-2-methyl-thiazolo[3,2-a]pyrimidin-5-one]"
